US20110280940A1, “Di-Vanilloyl And Tri-Vanilloyl Derivatives For Use In Anti-Cancer Therapy” (priority 2008, published 2011)
Where two headings read alike, the source gives them in different places.

Legend:
U373 glioblastoma cells = experiment: MTT colorimetric assay, overall cell growth, U373; format: cell-based, human; details: 72 hours of incubation, read-out: In Vitro IC50 Growth Inhibitory Values, U373
Excerpt: (§1) The amount of formazan obtained at the end of the experiment, measured by means of a spectrophotometer, is directly proportional to the number of living cells. Optical density determination thus enabled a quantitative measurement of the effect of the investigated compounds as compared to the control condition (untreated cells) and/or to other reference compounds. Eleven human cancer cell lines and one mouse melanoma cell-line (B16F10) described in Table 2 were used in the following MTT tests. These cancer cell lines cover seven histological cancer types including prostate (PC3), glioma (Hs683, T98G, U373, melanoma (VM21, VM28), non-small-cell-lung (A549), breast (MCF-7), colon (LoVo) and oesophageal (OE21, OE33) cancers. […] Each cell line was seeded in its appropriate culture medium. The detailed experimental procedure was the following: after a 24-hour period of incubation at 37° C., the culture medium was replaced by 100 μl of fresh medium in which the tested compound was previously dissolved, at the following molar concentrations: 10^-8 […] and 10^-4 M. Each experiment was performed in sestuplicates (6 times). After 72 hours of incubation at 37° C. with (experimental conditions) or without (control condition) the compound to be tested, the medium was replaced by 100 μl MTT dissolved in RPMI (1640 without phenol red) at a concentration of 0.5 or 1 mg/ml. The micro-wells were subsequently incubated during 3 hours and a half at 37° C. and centrifuged at 1300 rpm during 10 minutes. MTT was removed and formazan crystals formed were dissolved in 100 μl DMSO. The micro-wells were shaken for 5 minutes and read on a spectrophotometer at wavelengths of 570 nm (maximal formazan absorbance). For each experimental condition, the mean optical density was calculated, allowing the determination of the percentage of remaining living cells in comparison to the control. […] The origin of all the cell lines we used, along with their biological characteristics, and the validation procedures of the MTT colorimetric assay as employed here are fully detailed in Van Quaquebeke et al., 2005, J Med Chem 48:849-856; […]

Hs683 glioma cells = experiment: MTT colorimetric assay, overall cell growth, Hs683; format: cell-based, human; details: read-out: In Vitro IC50 Growth Inhibitory Values, Hs683
Excerpt: as §1

[1] = system: A549 non-small-cell-lung cancer cells; experiment: MTT colorimetric assay, overall cell growth, A549; format: cell-based, human; details: read-out: In Vitro IC50 Growth Inhibitory Values, A549
Excerpt: as §1

[2] = system: PC-3 prostate cancer cells; experiment: MTT colorimetric assay, overall cell growth, PC-3; format: cell-based, human; details: 72 hours of incubation, read-out: In Vitro IC50 Growth Inhibitory Values, PC-3
Excerpt: as §1

[3] = system: MCF-7 breast cancer cells; experiment: MTT colorimetric assay, overall cell growth, MCF-7; format: cell-based, human; details: read-out: In Vitro IC50 Growth Inhibitory Values, MCF-7
Excerpt: as §1

LoVo colon cancer cells = experiment: MTT colorimetric assay, overall cell growth, LoVo; format: cell-based, human; details: 72 hours of incubation, read-out: In Vitro IC50 Growth Inhibitory Values, LoVo
Excerpt: as §1

T98G glioma cells = experiment: MTT colorimetric assay, overall cell growth, T98G; format: cell-based, human; details: 72 hours of incubation, read-out: In Vitro IC50 Growth Inhibitory Values, T98G
Excerpt: as §1

[4] = system: OE21 oesophageal cancer cells; experiment: MTT colorimetric assay, overall cell growth, OE21; format: cell-based, human; details: read-out: In Vitro IC50 Growth Inhibitory Values, OE21
Excerpt: as §1

[5] = system: OE33 oesophageal cancer cells; experiment: MTT colorimetric assay, overall cell growth, OE33; format: cell-based, human; details: read-out: In Vitro IC50 Growth Inhibitory Values, OE33
Excerpt: as §1

VM21 melanoma cells = experiment: MTT colorimetric assay, overall cell growth, VM21; format: cell-based, human; details: MTT, 72 hours of incubation, read-out: In Vitro IC50 Growth Inhibitory Values, VM21
Excerpt: as §1

VM48 melanoma cells = experiment: MTT colorimetric assay, overall cell growth, VM48; format: cell-based, human; details: MTT, 72 hours of incubation, read-out: In Vitro IC50 Growth Inhibitory Values, VM48
[6] = system: Eleven human cancer cell lines; experiment: MTT colorimetric assay, across the eleven human cancer cell lines; format: cell-based; details: mean ± SEM over the 11 human cancer cell lines, MTT, 72 hours; read-out: In Vitro IC50 Growth Inhibitory Values, m ± SEM
Excerpt: as §1

[7] = system: B16F10 melanoma cell-line; experiment: MTT colorimetric assay, overall cell growth, B16F10; format: cell-based, mouse; details: read-out: In Vitro IC50 Growth Inhibitory Values, B16F10
Excerpt: as §1

IC50 (VM21 melanoma cells; Homo sapiens) | IC50 (VM48 melanoma cells; Homo sapiens) | Compound | IC50 (U373 glioblastoma cells) | IC50 (Hs683 glioma cells; 72 hours of incubation) | IC50 ([1]; 72 hours of incubation) | IC50 [2] | IC50 ([3]; 72 hours of incubation) | IC50 (LoVo colon cancer cells) | IC50 (T98G glioma cells) | IC50 ([4]; 72 hours of incubation) | IC50 ([5]; 72 hours of incubation) | IC50 (VM21 melanoma cells) | IC50 (VM48 melanoma cells) | IC50 [6] | IC50 ([7]; 72 hours of incubation) | also measured
48 µM | 58 µM | COc1cc(C(=O)OCc2ccccc2COC(=O)c2ccc(O)c(OC)c2)ccc1O [DLT24, [2-[(4-hydroxy-3-methoxy-benzoyl)oxymethyl]phenyl]methyl 4-hydroxy-3-methoxy-benzoate] | – | – | – | – | – | – | – | – | – | – | – | 53 ± 2 µM | – | –
> 100 µM | > 100 µM | COc1cc(C(=O)OC/C=C/COC(=O)c2ccc(O)c(OC)c2)ccc1O [DLT27, 1,4-oxybut-2-enyl-bis(4-hydroxy-3-methoxybenzoate)] | – | – | – | – | – | – | – | – | – | – | – | > 100 µM | – | IC50 ([2]; Homo sapiens): > 100 µM
42 µM | 60 µM | COc1cc(C(=O)OCC#CCOC(=O)c2ccc(O)c(OC)c2)ccc1O [DLT28, 1,4-oxybut-2-ynyl bis(4-hydroxy-3-methoxybenzoate)] | – | – | – | – | – | – | – | – | – | – | – | 50 ± 4 µM | – | –
81 µM | 51 µM | COc1cc(C(=O)OCc2cccc(COC(=O)c3ccc(O)c(OC)c3)c2)ccc1O [DLT25, [3-[(4-hydroxy-3-methoxy-benzoyl)oxymethyl]phenyl]methyl 4-hydroxy-3-methoxy-benzoate] | – | – | – | – | – | – | – | – | – | – | – | 52 ± 5 µM | – | –

Second part, the compound before the results:

Compound | IC50 (VM21 melanoma cells; Homo sapiens) | IC50 (VM48 melanoma cells; Homo sapiens) | IC50 (U373 glioblastoma cells) | IC50 (Hs683 glioma cells; 72 hours of incubation) | IC50 ([1]; 72 hours of incubation) | IC50 [2] | IC50 ([3]; 72 hours of incubation) | IC50 (LoVo colon cancer cells) | IC50 (T98G glioma cells) | IC50 ([4]; 72 hours of incubation) | IC50 ([5]; 72 hours of incubation) | IC50 (VM21 melanoma cells) | IC50 (VM48 melanoma cells) | IC50 [6] | IC50 ([7]; 72 hours of incubation) | also measured
COc1cc(C(=O)NCCCCCNC(=O)c2ccc(O)c(OC)c2)ccc1O [DLT37, N,N′-Pentane-1,5-diyl bis-(4-hydroxy-3-methoxybenzamide)] | – | – | 91 µM | 80 µM | 52 µM | > 100 µM | 71 µM | 41 µM | 55 µM | 81 µM | > 100 µM | > 100 µM | > 100 µM | > 100 µM | > 100 µM | –
COc1ccc(C(=O)OCCCCCCOC(=O)c2ccc(OC)c(OC)c2)cc1OC [DLT26, 6-(3,4-dimethoxybenzoyl)oxyhexyl 3,4-dimethoxybenzoate] | > 100 µM | > 100 µM | – | – | – | – | – | – | – | – | – | – | – | > 100 µM | – | –
O=C(O[C@@H]1CCCC[C@H]1OC(=O)c1cc(O)c(O)c(O)c1)c1cc(O)c(O)c(O)c1 (stereo in doubt) [DLT34, R,R-trans-cyclohexane 1,2-diyl bis-(3,4,5-trihydroxybenzoate)] | – | – | 37 µM | 24 µM | 32 µM | 68 µM | 28 µM | 34 µM | 31 µM | 37 µM | 45 µM | 91 µM | 28 µM | 41 µM | 0.3 µM | –
COc1cc(C(=O)NCCCNC(=O)c2ccc(O)c(OC)c2)ccc1O [DLT36, N,N′-Propane-1,3-diyl bis-(4-hydroxy-3-methoxybenzamide)] | – | – | 38 µM | 31 µM | 26 µM | 40 µM | 25 µM | 32 µM | 40 µM | 28 µM | 36 µM | 49 µM | 43 µM | 35 ± 2 µM | 38 µM | –
COc1cc(C(=O)NC2CCC(NC(=O)c3ccc(O)c(OC)c3)CC2)ccc1O (mixture of isomers) [DLT40, N,N′-cis/trans-cyclohexane-1,4-diyl bis-(4-hydroxy-3-methoxybenzamide)] | – | – | > 100 µM | 95 µM | > 100 µM | 87 µM | 80 µM | 78 µM | > 100 µM | 81 µM | > 100 µM | > 100 µM | 98 µM | > 100 µM | 36 µM | –
O=C(OCCOC(=O)c1cc(O)c(O)c(O)c1)c1cc(O)c(O)c(O)c1 [DLT31, Ethane-1,2-diyl bis-(3,4,5-trihydroxybenzoate)] | 37 µM | 35 µM | – | – | – | – | – | – | – | – | – | – | – | 30 ± 3 µM | – | IC50 (U373 glioblastoma cells; Homo sapiens, U373 MG): 28 µM; IC50 (Hs683 glioma cells; Homo sapiens, Hs 683, 72 hours of incubation): 27 µM; IC50 ([1]; Homo sapiens, A549, 72 hours of incubation): 23 µM; IC50 ([2]; Homo sapiens): 30 µM; IC50 ([3]; Homo sapiens, MCF7, 72 hours of incubation): 55 µM; IC50 (LoVo colon cancer cells; Homo sapiens, LoVo): 29 µM; IC50 (T98G glioma cells; Homo sapiens, T98G): 28 µM; IC50 ([4]; Homo sapiens, OE21, 72 hours of incubation): 16 µM; IC50 ([5]; Homo sapiens, OE33, 72 hours of incubation): 19 µM; IC50 ([7]; Mus musculus, B16-F10, 72 hours of incubation): 41 µM
O=C(O[C@H]1CCCC[C@@H]1OC(=O)c1cc(O)c(O)c(O)c1)c1cc(O)c(O)c(O)c1 (stereo in doubt) [DLT33, S,S-trans-cyclohexane 1,2-diyl bis-(3,4,5-trihydroxybenzoate)] | – | – | 35 µM | 32 µM | 30 µM | 44 µM | 58 µM | 43 µM | 38 µM | 43 µM | 66 µM | 38 µM | 51 µM | 43 µM | 22 µM | –
COc1ccc(C(=O)OCCCCCCOC(=O)c2ccc(OC)c(O)c2)cc1O [DLT29, 6-(3-hydroxy-4-methoxy-benzoyl)oxyhexyl 3-hydroxy-4-methoxy-benzoate] | 74 µM | 82 µM | – | – | – | – | – | – | – | – | – | – | – | > 100 µM | – | –
COc1cc(C(=O)O[C@H]2CC[C@H](OC(=O)c3ccc(O)c(OC)c3)C2)ccc1O (stereo in doubt) [DLT18, S,S-trans-cyclopentane-1,3-diyl bis-(4-hydroxy-3-methoxybenzoate)] | – | – | > 100 µM | 46 µM | 43 µM | 43 µM | 44 µM | 41 µM | > 100 µM | 53 µM | 64 µM | > 100 µM | 59 µM | > 100 µM | 30 µM | –
COc1cc(C(=O)O[C@@H]2CCC[C@H]2OC(=O)c2ccc(O)c(OC)c2)ccc1O (stereo in doubt) [DLT16, R,R-trans-cyclopentane-1,2-diyl bis-(4-hydroxy-3-methoxybenzoate)] | – | – | 31 µM | 22 µM | 21 µM | 25 µM | 25 µM | 29 µM | 32 µM | 27 µM | 28 µM | 26 µM | 29 µM | 27 µM | 4 µM | –
